Experiments:
[1] = Quantum efficiency of singlet oxygen generation in air-saturated solution; type: physicochemical
Text: (§1) The ability of the dyes of this invention to function as a cancer-treating agent is in part a reflection of the ability of the dye to generate singlet oxygen in air-saturated solution. (As used herein, "air-saturated solution" means a solution of dye exposed to the atmosphere.) In studying a variety of chalcogenopyrylium dyes, only those dyes containing a selenium or tellurium atom show any appreciable generation of singlet oxygen upon irradiation. Fortuitously, selenopyrylium and telluropyrylium dyes have absorption maxima that are shifted to the red relative to their pyrylium and thiopyrylium analogues. That is, not only are these dyes effective in killing cancer cells because of their high quantum efficiency, but also they generally operate at the most preferred wavelengths, namely those of 700 nm or longer. Table III contains examples of chalcogenopyrylium dyes, their quantum efficiencies for singlet oxygen generation, and their absorption maxima. (In this Table, Ph=Phenyl, Me=Methyl, and t-Bu=tertiary butyl.)

[2] = Absorption maxima (λmax) of chalcogenopyrylium dyes; type: physicochemical
Text: as §1

[3] = Distribution of Dye 1 in organ tissues of glioma (RT-1) bearing rats; type: in vivo, rat
Experimental: Dye 1 of Table 1 was delivered to glioma sites in rat brains, such sites having been achieved by implanting RT-1 rat glioma cancer cells into the brains of twenty-four 400 g rats. Stock solutions of Dye 1 at 1 mM concentration were prepared by dissolving the dye in a minimal amount of 95% ethanol and diluting with phosphate buffered saline to 1 mM. RT-1 glioma cells were injected into the cortex of the rats at day 0. Treatment with the dye was done at day 12. A quantity of the stock solution sufficient to deliver 1.5 mg (2.5 μmol) of Dye 1 per rat (approximately2 mL) was delivered by femoral artery or carotid artery injection. The animals were sacrificed at the indicated times, the indicated tissues were removed, and frozen until the amount of dye was quantified. The dye content of the indicated tissues was examined spectroscopically by homogenizing the tissues, doing a lipid extraction of the homogenate, and measuring the optical density of the extract at a constant volume at the wavelength of the dye. Alternatively, a tritium labeled sample of Dye 1 was employed in the injection and the tissue homogenate was placed directly in a scintillation vial. The dye content was then measured by tritium count. […] (The values listed at times of 0.25 and 1.0 h after injection are comparative examples only, since there is either too high a concentration present in the brain, or too little in the tumor.)

RT-1 glioma cells = experiment: Survival study of rats implanted with RT-1 glioma cells; type: in vivo, rat; conditions: for Mean Survival Time: 2.5 μmol femoral artery
Experimental: A survival study was conducted using Dye 1 with 400 g rats implanted with RT-1 glioma cells at day 0 and treated with 2.5 μmol of dye delivered by femoral artery injection on day 12. The treated animals were irradiated one hour post injection using a quartz fiber optic with a diffusion tip with the dye laser described earlier as the light source. Total irradiation energy was 50 J cm^-2 at 785 nm. Three control groups were used: untreated animals, animals treated with dye only, and animals treated with light only. [The number of rats per group were: 10 for laser and dye treatment, 6 for control (no treatment), 14 for dye only and 6 for laser only.] Mean survival time data are compiled in Table VIII.

[4] = Distribution of Dye 5 in organ tissues of rats bearing an implanted mammarian tumor; type: in vivo, rat; conditions: peritoneum, prep L, optical density
[5] = carotid artery, 0.33 h, prep H, tritium counts
[6] = femoral artery, 0.25 h, prep D, tritium counts
[7] = femoral artery, 0.50 h, prep D, tritium counts
[8] = femoral artery, 1.0 h, prep (L), optical density (B)
[9] = femoral artery, 1.0 h, prep D, tritium counts

CC(C)(C)C1=CC(=CC=Cc2cc(C(C)(C)C)[s+]c(C(C)(C)C)c2)C=C(C(C)(C)C)S1.F[P-](F)(F)(F)(F)F [C.E. 1, 2,6-Di-t-butyl-4-[3-(2,6-di-t-butyl-4H-thiopyran-4-ylidene)-1-propen-1-yl]thiopyrylium hexafluorophosphate, reference compound]
Quantum efficiency of singlet oxygen generation Φ(1O2) ([1]; air-saturated solution): ≤ 0.001 | Absorption maximum λmax ([2]; H2O): 660 nm

CC(C)(C)C1=CC(=CC=Cc2cc(C(C)(C)C)[o+]c(C(C)(C)C)c2)C=C(C(C)(C)C)S1.F[P-](F)(F)(F)(F)F [C.E. 2, 2,6-Di-t-butyl-4-[3-(2,6-di-t-butyl-4H-thiopyran-4-ylidene)-1-propen-1-yl]pyrylium hexafluorophosphate, reference compound]
Quantum efficiency of singlet oxygen generation Φ(1O2) ([1]; air-saturated solution): ≤ 0.001 | Absorption maximum λmax ([2]; H2O): 630 nm

CC(C)(C)C1=CC(=CC=Cc2cc(C(C)(C)C)[se+]c(C(C)(C)C)c2)C=C(C(C)(C)C)[Te]1.[Cl-] [Dye 1, 2,6-Di-t-butyl-4-[3-(2,6-di-t-butyl-4H-telluropyran-4-ylidene)-1-propen-1-yl]selenopyrylium chloride]
nmol Dye 1/g of tissue, Brain [3, 5]: 0.9 nmol Dye 1/g of tissue | nmol Dye 1/g of tissue, Tumor [3, 5]: 16.0 nmol Dye 1/g of tissue | nmol Dye 1/g of tissue, Liver ([3]; femoral artery, 0.25 h, prep (H), tritium counts): 5.4 nmol Dye 1/g of tissue | nmol Dye 1/g of tissue, Brain [3, 6]: 46 nmol Dye 1/g of tissue | nmol Dye 1/g of tissue, Heart [3, 6]: 7.4 nmol Dye 1/g of tissue | nmol Dye 1/g of tissue, Liver [3, 6]: 9.1 nmol Dye 1/g of tissue | nmol Dye 1/g of tissue, Tumor [3, 6]: 45 nmol Dye 1/g of tissue | nmol Dye 1/g of tissue, Brain [3, 7]: 18.0 nmol Dye 1/g of tissue | nmol Dye 1/g of tissue, Liver [3, 7]: 17.0 nmol Dye 1/g of tissue | nmol Dye 1/g of tissue, Tumor [3, 7]: 32.0 nmol Dye 1/g of tissue | nmol Dye 1/g of tissue, Heart [3, 8]: 1.1 nmol Dye 1/g of tissue | nmol Dye 1/g of tissue, Liver [3, 8]: 3.3 nmol Dye 1/g of tissue | nmol Dye 1/g of tissue, Brain [3, 9]: 4.7 nmol Dye 1/g of tissue | nmol Dye 1/g of tissue, Heart [3, 9]: 1.3 nmol Dye 1/g of tissue | nmol Dye 1/g of tissue, Liver [3, 9]: 13.2 nmol Dye 1/g of tissue | passage of the blood-brain barrier ([3]; rat, arterial injection): appears to pass the blood-brain barrier | concentrations of the dye in the tumor mass ([3]; short time periods following injection): reasonably high concentrations | survival relative to animals in the control groups (RT-1 glioma cells; Dye 1 and light): prolonged survival | Proportion of Animals Surviving (RT-1 glioma cells; Dye Only, day ≥15): 0.50 | Proportion of Animals Surviving (RT-1 glioma cells; Dye Only, day ≥19): 0.43 | Proportion of Animals Surviving (RT-1 glioma cells; Dye Only, day ≥22): 0.43 | Proportion of Animals Surviving (RT-1 glioma cells; Dye Only, day ≥26): 0.43 | Proportion of Animals Surviving (RT-1 glioma cells; Dye Only, day ≥33): 0.43 | Proportion of Animals Surviving (RT-1 glioma cells; Dye Only, day ≥40): 0.43 | Proportion of Animals Surviving (RT-1 glioma cells; Dye Only, day ≥47): 0.00 | Mean Survival Time (RT-1 glioma cells; Dye Only): 27.9 days | Proportion of Animals Surviving (RT-1 glioma cells; Laser + Dye, day ≥15): 0.70 | Proportion of Animals Surviving (RT-1 glioma cells; Laser + Dye, day ≥19): 0.70 | Proportion of Animals Surviving (RT-1 glioma cells; Laser + Dye, day ≥22): 0.70 | Proportion of Animals Surviving (RT-1 glioma cells; Laser + Dye, day ≥26): 0.60 | Proportion of Animals Surviving (RT-1 glioma cells; Laser + Dye, day ≥33): 0.50 | Proportion of Animals Surviving (RT-1 glioma cells; Laser + Dye, day ≥40): 0.50 | Proportion of Animals Surviving (RT-1 glioma cells; Laser + Dye, day ≥47): 0.30 | Mean Survival Time (RT-1 glioma cells; Laser + Dye, 50 J cm^-2 at 785 nm): 32.8 days | animals still alive (RT-1 glioma cells; fully treated (laser + dye), from day 47 on): 30%

CC(C)(C)C1=CC(=CC=Cc2cc(C(C)(C)C)[se+]c(C(C)(C)C)c2)C=C(C(C)(C)C)[Se]1 [Dye 2]
Quantum efficiency of singlet oxygen generation Φ(1O2) ([1]; air-saturated solution): 0.014 | Absorption maximum λmax ([2]; H2O): 730 nm

CC(C)(C)C1=CC(=CC=Cc2cc(C(C)(C)C)[s+]c(C(C)(C)C)c2)C=C(C(C)(C)C)[Te]1 [Dye 3]
Quantum efficiency of singlet oxygen generation Φ(1O2) ([1]; air-saturated solution): 0.07 | Absorption maximum λmax ([2]; H2O): 745 nm

CC(C)(C)C1=CC(=CC=Cc2cc(C(C)(C)C)[o+]c(C(C)(C)C)c2)C=C(C(C)(C)C)[Te]1.[O-][Cl+3]([O-])([O-])[O-] [Dye 5, 2,6-Di-t-butyl-4-[3-(2,6-di-t-butyl-4H-telluropyran-4-ylidene)-1-propen-1-yl]pyrylium perchlorate]
nmol Dye 1/g of tissue, Heart ([4]; 2 h): 1.3 nmol Dye 1/g of tissue | nmol Dye 1/g of tissue, Kidney ([4]; 2 h): ≤ 0.5 nmol Dye 1/g of tissue | nmol Dye 1/g of tissue, Liver ([4]; 2 h): 4.1 nmol Dye 1/g of tissue | nmol Dye 1/g of tissue, Tumor ([4]; 2 h): 5.5 nmol Dye 1/g of tissue | nmol Dye 1/g of tissue, Heart ([4]; 4 h): ≤ 0.5 nmol Dye 1/g of tissue | nmol Dye 1/g of tissue, Kidney ([4]; 4 h): ≤ 0.5 nmol Dye 1/g of tissue | nmol Dye 1/g of tissue, Liver ([4]; 4 h): 3.8 nmol Dye 1/g of tissue | nmol Dye 1/g of tissue, Tumor ([4]; 4 h): 3.3 nmol Dye 1/g of tissue

CC(C=Cc1cc(C(C)(C)C)[te+]c(C(C)(C)C)c1)=C1C=C(C(C)(C)C)[Se]C(C(C)(C)C)=C1 [Dye 6]
Quantum efficiency of singlet oxygen generation Φ(1O2) ([1]; air-saturated solution): 0.01 | Absorption maximum λmax ([2]; CH2Cl2): 803 nm

CC(=CC(C)=C1C=C(C(C)(C)C)[Se]C(C(C)(C)C)=C1)c1cc(C(C)(C)C)[se+]c(C(C)(C)C)c1 [Dye 7]
Quantum efficiency of singlet oxygen generation Φ(1O2) ([1]; air-saturated solution): 0.005 | Absorption maximum λmax ([2]; MeOH): 790 nm

CC(C)(C)C1=CC(=CC=Cc2cc(C(C)(C)C)[s+]c(C(C)(C)C)c2)C=C(C(C)(C)C)[Se]1 [Dye 8]
Quantum efficiency of singlet oxygen generation Φ(1O2) ([1]; air-saturated solution): 0.008 | Absorption maximum λmax ([2]; H2O): 700 nm

C(=C1C=C(c2ccccc2)[Te]C(c2ccccc2)=C1)c1cc(-c2ccccc2)[te+]c(-c2ccccc2)c1 [Dye 10]
Quantum efficiency of singlet oxygen generation Φ(1O2) ([1]; air-saturated solution): 0.08 | Absorption maximum λmax ([2]; MeOH): 760 nm

CC(=C1C=C(c2ccccc2)[Te]C(c2ccccc2)=C1)c1cc(-c2ccccc2)[te+]c(-c2ccccc2)c1 [Dye 11]
Quantum efficiency of singlet oxygen generation Φ(1O2) ([1]; air-saturated solution): 0.01 | Absorption maximum λmax ([2]; CH2Cl2): 843 nm

CC(=C1C=C(C(C)(C)C)[Te]C(C(C)(C)C)=C1)c1cc(C(C)(C)C)[te+]c(C(C)(C)C)c1 [Dye 13]
Quantum efficiency of singlet oxygen generation Φ(1O2) ([1]; air-saturated solution): 0.005 | Absorption maximum λmax ([2]; H2O): 790 nm

CC(C)(C)C1=CC(=C(C#N)C=Cc2cc(C(C)(C)C)[te+]c(C(C)(C)C)c2)C=C(C(C)(C)C)[Te]1 [Dye 15]
Quantum efficiency of singlet oxygen generation Φ(1O2) ([1]; air-saturated solution): 0.08 | Absorption maximum λmax ([2]; MeOH): 790 nm

CC(C)(C)C1=CC(=Cc2cc(CCCCO)[te+]c(CCCCO)c2)C=C(C(C)(C)C)[Se]1 [Dye 18]
Quantum efficiency of singlet oxygen generation Φ(1O2) ([1]; estimated): ≥ 0.005 | Absorption maximum λmax ([2]; MeOH): 690 nm

Reference: patent US5047419A, “Photodynamic therapy of glioma or mammary carcinoma using seleno- or telluropyrylium salts” (Eastman Kodak Company, priority 1988, dated 1991)
